Results as given in article PMC5591244, “Novel selective, potent naphthyl TRPM8 antagonists identified through a combined ligand- and structure-based virtual screening approach” (Scientific Reports, 2017).
“Also recorded” adds a separate entry of the source.

What was measured:
TRPV1 = TRPV1 (Homo sapiens, UniProt Q8NER1); experiment: Selectivity calcium mobilization assay, TRPV1; format: cell-based; conditions: agonist 100 nM Capsaicin
Experimental: (§1) For calcium mobilization assays, cells were seeded at 10,000 cells/well in 384-well plates coated with poly-D-lysine (MATRIX black/clear bottom #4332-CPL, Thermo Scientific, Waltham, MA, USA) in complete medium.Twenty-four hours after seeding, the plates were washed with Tyrode’s buffer with a Bio-Tek-ELx405 Microplate Washer (Merck Millipore; Billerica, MA, USA), and then 10 µl/well of a solution containing the fluorescent Ca^2+ indicator Fluo-4 NW dye was added. Cells were incubated for 1 h at room temperature before test compounds were added at 3X the concentration with respect to the final wanted concentration to be tested with a FLIPR TETRA system (Molecular Devices, Sunnyvale, CA, USA). Calcium mobilization was monitored over a period of 5 min. A second injection of 10 µl/well of a reference agonist (icilin or Cooling agent 10) at 4X concentration in assay buffer was performed using the FLIPR TETRA system. Of note, for selectivity assays, the following agonists were used: 10 μM AITC (allyl isothiocyanate) for TRPA1; 100 nM Capsaicin for TRPV1; and 20 nM GSK1016790A for TRPV4.

TRPV4 = TRPV4 (Homo sapiens, UniProt Q9HBA0); experiment: Selectivity calcium mobilization assay, TRPV4; format: cell-based; conditions: agonist 20 nM GSK1016790A
TRPV4, sequence (Q9HBA0 whole entry, species assumed): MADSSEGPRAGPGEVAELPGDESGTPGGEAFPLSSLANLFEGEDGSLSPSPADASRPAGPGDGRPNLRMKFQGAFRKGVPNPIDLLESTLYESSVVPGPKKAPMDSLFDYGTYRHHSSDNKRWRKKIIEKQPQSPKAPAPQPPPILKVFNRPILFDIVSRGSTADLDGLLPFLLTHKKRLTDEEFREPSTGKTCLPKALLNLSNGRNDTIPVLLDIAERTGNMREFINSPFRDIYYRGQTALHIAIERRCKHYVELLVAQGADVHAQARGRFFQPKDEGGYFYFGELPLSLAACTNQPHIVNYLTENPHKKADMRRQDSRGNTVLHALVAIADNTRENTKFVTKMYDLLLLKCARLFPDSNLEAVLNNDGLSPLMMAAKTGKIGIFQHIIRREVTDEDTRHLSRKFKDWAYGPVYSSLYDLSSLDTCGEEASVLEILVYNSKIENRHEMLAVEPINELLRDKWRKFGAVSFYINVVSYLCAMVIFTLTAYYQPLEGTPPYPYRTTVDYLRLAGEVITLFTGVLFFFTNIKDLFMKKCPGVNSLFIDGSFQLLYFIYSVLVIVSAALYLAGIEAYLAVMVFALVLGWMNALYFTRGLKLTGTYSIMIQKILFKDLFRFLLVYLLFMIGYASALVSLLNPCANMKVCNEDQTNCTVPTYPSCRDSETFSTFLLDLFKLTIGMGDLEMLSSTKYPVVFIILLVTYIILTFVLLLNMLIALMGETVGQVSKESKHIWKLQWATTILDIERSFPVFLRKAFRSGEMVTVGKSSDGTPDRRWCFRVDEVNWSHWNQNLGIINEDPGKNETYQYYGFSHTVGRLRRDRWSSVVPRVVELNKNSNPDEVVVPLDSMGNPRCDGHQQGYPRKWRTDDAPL
Experimental: as §1

TRPV3 = experiment: Selectivity, TRPV3 as named in the discussion; format: cell-based
[1] = system: rat bladder (rhythmic bladder contraction); experiment: Isovolumetric bladder rat model; format: in vivo
Experimental: (§2) To assess the activity of compound 1 in preclinical models of painful urologic syndromes as OBS we used an isovolumetric rat bladder animal model. A preliminary PK/ADMET study was conducted to assess the behaviour of compound 1 in vivo (Table S3).
Female Wistar rats (190–250 g) obtained from Charles River Laboratories were housed according to animal welfare guidelines. Rats were housed in a specific-pathogen-free environment under strictly controlled light cycle conditions, and food and water were provided ad libitum. All experimental protocols were carried out by Urosphere in accordance with the European Community Council Directive 86/609/EEC. They were performed in accordance with French legislation concerning the protection of laboratory animals and they were approved by French Ministry for Agriculture and Fisheries which provided a currently valid license for experiments on vertebrate animals to Dr. Philippe Lluel.
For intravenous administration, compound 1 was diluted in vehicle (10% of 2:1 solutol:NMP, 16% buffer, and 74% H2O) according to body weight to obtain doses of 10 mg/kg. For intravesical administration, compound 1 was diluted at a concentration of 7.56 mg/ml in a solution of 7% 2:1 solutol:NMP, […]. Eight rats were used for the control group and eight were used for the treated group.
Rats were anesthetized with urethane (1 g/kg, i.p.), given as a divided dose of 80% initially and 20% 15 min later. After abdominal incision, the ureters were ligated and sectioned. A catheter was placed into the bladder through the urethra. Then, the urethra was ligated at the level of the urinary meatus. For cystometric experiments with intravenous compound 1 administration a bladder catheter was connected via a T-tube to a strain gauge, which was used to measure the intravesical pressure. Isovolumetric bladder contractions were induced by stepwise injections of physiological saline at room temperature (100 μl every 5 min) until stable RBC occurred. After stabilization and a control period of at least 30 min, characterized by stable and reproducible bladder contractions (basal values), the test substance or vehicle was administered by intravenous infusion (1 mL within 5 min). The effects of compound 1 on micturition frequency (MF) (peaks/30 min), time of inhibition, and threshold volume (ml) (volume inducing RBC) were analyzed. The drug effects were evaluated from the end of the administration up to 1 hour after administration. For intravesical administration, compounds were administered intravesically 3 × 100 μl every 5 min. Then, the bladder was filled with 100 μl of saline every 5 min until the occurrence of rhythmic bladder contraction (RBC) with a maximal volume of 3 mL. […]

[2] = Preliminary PK/ADMET study; conditions: in vivo proof of concept; Table S3 not available
Experimental: as §2

TRPV1, sequence (Q8NER1 whole entry, species assumed): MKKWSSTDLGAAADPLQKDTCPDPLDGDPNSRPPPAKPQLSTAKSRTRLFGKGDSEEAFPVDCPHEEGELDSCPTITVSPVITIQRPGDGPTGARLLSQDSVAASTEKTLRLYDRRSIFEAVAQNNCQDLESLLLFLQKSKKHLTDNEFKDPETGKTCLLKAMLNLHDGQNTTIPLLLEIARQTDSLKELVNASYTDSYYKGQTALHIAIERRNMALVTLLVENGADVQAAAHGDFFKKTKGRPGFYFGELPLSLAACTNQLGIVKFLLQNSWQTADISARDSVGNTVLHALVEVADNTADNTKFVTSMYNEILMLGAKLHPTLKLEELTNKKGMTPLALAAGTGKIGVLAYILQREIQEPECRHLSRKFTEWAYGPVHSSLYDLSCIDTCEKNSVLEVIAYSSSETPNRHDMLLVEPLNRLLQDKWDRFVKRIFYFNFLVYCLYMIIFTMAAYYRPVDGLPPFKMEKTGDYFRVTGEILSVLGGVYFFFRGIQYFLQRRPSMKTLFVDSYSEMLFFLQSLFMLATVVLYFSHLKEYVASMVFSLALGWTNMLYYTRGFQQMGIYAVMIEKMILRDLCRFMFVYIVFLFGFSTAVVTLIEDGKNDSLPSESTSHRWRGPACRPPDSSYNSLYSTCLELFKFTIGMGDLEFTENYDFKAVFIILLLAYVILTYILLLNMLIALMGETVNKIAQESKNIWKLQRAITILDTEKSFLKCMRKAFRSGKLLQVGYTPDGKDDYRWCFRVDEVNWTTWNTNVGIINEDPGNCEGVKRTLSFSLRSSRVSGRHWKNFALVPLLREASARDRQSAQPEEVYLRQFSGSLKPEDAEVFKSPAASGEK

Clc1c(OCCNCc2ccco2)ccc2ccccc12 [Compound 1]
Activity on TRPV1 (TRPV1): completely inactive; also recorded: didn’t have any effect | Activity on TRPV4 (TRPV4): completely inactive | Effect on inhibition of TRPV3 (TRPV3): didn’t have any effect | Threshold volume versus vehicle, intravenous ([1]; intravenous 10 mg/kg): No significant difference | Micturition frequency (MF) 0–30 min post-administration ([1]; intravenous 10 mg/kg, 0–30 min, 10 mg/kg): significantly decreased; also recorded: significantly reduced | Micturition frequency (MF) 30–60 min post-administration ([1]; intravenous 10 mg/kg, 30–60 min): no effect | Occurrence of RBC, intravesical ([1]; intravesical 2.268 mg): abolished the occurrence of RBC | PK/ADME properties [2]: adequate
